Columns and labels:
CYP2C19 = molecular target: T1, CYP2C19 (Homo sapiens, UniProt P33261); test: Cytochrome P450 reaction phenotyping, recombinant CYP2C19; type: in vitro ADME; details: for t½: 1 µM substrate, recombinant CYP2C19, NADPH
T1 construct: purchased
Procedure: (§1) The amount of test compound remaining at each time point was analysed by LC-MS/MS. Incubations in control recombinant enzymes were also performed to assess non-enzymatic mediated stability.
(§2) Incubations were also performed using control Bactosomes™ (no cytochrome P450 enzymes present) to reveal any non-enzymatic degradation. Control compounds known to be metabolised specifically by each P450 isoform were included. All incubations were performed singularly for each test compound. […] The reactions were stopped by transferring an aliquot of incubate to quench solvent at the appropriate time points, in a 1:3 ratio. The termination plates were centrifuged at 3,000 rpm for 20 min at 4° C. to precipitate the protein. Following protein precipitation, the sample supernatants were analysed using LC-MS/MS, along with internal standard (1:1 supernatant to internal standard).
(§3) Following correction for any loss in the incubations with the control Bactosomes™, from a plot of In peak area ratio (compound peak area/internal standard peak area) against time, the gradient of the line was determined. Subsequently, half-life (t½) was calculated using the equations below: […]

CYP2C9 = CYP2C9 (Homo sapiens, UniProt P11712); test: Cytochrome P450 reaction phenotyping, recombinant CYP2C9; details: for t½: 1 µM substrate, recombinant CYP2C9, NADPH
Chain of CYP2C9 (P11712 whole entry): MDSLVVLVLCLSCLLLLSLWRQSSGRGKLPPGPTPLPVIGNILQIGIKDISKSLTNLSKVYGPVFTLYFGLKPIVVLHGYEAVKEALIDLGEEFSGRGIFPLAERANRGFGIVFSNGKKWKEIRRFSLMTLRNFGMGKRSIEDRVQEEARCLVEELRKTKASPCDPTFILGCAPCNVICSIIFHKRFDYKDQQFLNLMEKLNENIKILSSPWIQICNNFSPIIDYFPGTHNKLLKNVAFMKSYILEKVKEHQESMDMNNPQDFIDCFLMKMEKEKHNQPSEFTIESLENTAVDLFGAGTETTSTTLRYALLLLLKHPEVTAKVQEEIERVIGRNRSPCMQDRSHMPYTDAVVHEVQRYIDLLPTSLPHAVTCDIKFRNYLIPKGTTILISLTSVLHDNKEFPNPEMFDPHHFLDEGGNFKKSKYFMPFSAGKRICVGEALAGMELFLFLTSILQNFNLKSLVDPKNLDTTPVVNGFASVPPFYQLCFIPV
Procedure: as §1, §2, §3

human liver microsomes = test: Metabolic stability in human liver microsomes with or without CYP1A2 inhibitor furafylline; details: 10 µM furafylline versus no inhibitor
Procedure: (§4) The amount of test compound remaining at each time point was analysed by LC-MS/MS. An incubation in the absence of NADPH was also performed to assess non-CYP mediated stability.
(§5) In the pre-screen assay, […] 0.1 M phosphate buffer pH 7.4 (final substrate concentration 1 µM) were pre-incubated at 37° C. prior to the addition of NADPH (final concentration 1 mM) to initiate the reaction. A minus cofactor control incubation was included for each compound tested where 0.1 M phosphate buffer pH 7.4 was added instead of NADPH (minus NADPH). […] A minus cofactor control incubation was included for each compound tested where 0.1 M phosphate buffer pH 7.4 was added instead of cofactor (minus NADPH). […] The reactions were stopped by transferring an aliquot of incubate to acetonitrile at the appropriate time points, in a 1:3 ratio. The termination plates were centrifuged at 3,000 rpm for 20 min at 4° C. to precipitate the protein. Following protein precipitation, the sample supernatants were analysed using LC-MS/MS, along with internal standard (1:1 supernatant to internal standard).
(§6) From a plot of In peak area ratio (compound peak area/internal standard peak area) against time, the gradient of the line was determined. Subsequently, half-life and intrinsic clearance were calculated using the equations below: […]

[1] = as above; details: human, microsomes
Procedure: as §4, §5, §6

CYP1A2 [2] = test: as above; details: human, microsomes; for microsomal CLint at 1 µM: pH 7.4, CLint
Procedure: as §4, §5, §6

CYP2B6 = molecular target: T2, CYP2B6 (Homo sapiens, UniProt P20813); test: Cytochrome P450 reaction phenotyping, recombinant CYP2B6; type: in vitro ADME
T2 construct: purchased
T2 sequence (P20813 1-491): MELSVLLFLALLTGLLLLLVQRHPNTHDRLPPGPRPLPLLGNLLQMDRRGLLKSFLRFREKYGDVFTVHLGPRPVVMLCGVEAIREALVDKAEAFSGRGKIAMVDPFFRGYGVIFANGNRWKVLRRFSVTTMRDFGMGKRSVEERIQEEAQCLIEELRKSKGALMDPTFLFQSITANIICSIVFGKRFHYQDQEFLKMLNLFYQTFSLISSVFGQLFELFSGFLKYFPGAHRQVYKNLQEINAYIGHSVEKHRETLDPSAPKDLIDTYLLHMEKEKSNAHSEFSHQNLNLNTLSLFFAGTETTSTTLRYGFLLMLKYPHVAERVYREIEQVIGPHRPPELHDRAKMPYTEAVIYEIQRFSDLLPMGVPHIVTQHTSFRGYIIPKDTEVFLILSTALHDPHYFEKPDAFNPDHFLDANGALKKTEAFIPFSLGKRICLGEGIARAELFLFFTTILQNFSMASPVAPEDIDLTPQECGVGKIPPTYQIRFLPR
Procedure: as §1, §2, §3

[3] = Stability in human cryopreserved hepatocytes with or without CYP1A2 inhibitors (assays 1 to 3); details: human, hepatocytes; for half-life at 1 µM: t½
Procedure: (§7) In each assay, the amount of test compound remaining at each time point was analysed by LC-MS/MS.
(§8) The final incubation volume was 500 µL. […] A positive control compound, ethoxycoumarin, for CYP1A2 (as CYP1A2 substrate) was included. […] The reactions were stopped by transferring 50 µL of incubate to 100 µL acetonitrile containing internal standard at the appropriate time points (0, 5, 10, 20, 40 and 60 min). The termination plates were centrifuged at 2500 rpm at 4° C. for 30 min to precipitate the protein.
(§9) From a plot of In peak area ratio (compound peak area/internal standard peak area) against time, the gradient of the line was determined. Subsequently, half-life (t½) and intrinsic clearance (CLint) were calculated using the equations below: […]

CYP1A2 [4] = test: as above; details: human, hepatocytes; for half-life at 1 µM: t½
Procedure: as §7, §8, §9

T1 sequence (P33261 whole entry): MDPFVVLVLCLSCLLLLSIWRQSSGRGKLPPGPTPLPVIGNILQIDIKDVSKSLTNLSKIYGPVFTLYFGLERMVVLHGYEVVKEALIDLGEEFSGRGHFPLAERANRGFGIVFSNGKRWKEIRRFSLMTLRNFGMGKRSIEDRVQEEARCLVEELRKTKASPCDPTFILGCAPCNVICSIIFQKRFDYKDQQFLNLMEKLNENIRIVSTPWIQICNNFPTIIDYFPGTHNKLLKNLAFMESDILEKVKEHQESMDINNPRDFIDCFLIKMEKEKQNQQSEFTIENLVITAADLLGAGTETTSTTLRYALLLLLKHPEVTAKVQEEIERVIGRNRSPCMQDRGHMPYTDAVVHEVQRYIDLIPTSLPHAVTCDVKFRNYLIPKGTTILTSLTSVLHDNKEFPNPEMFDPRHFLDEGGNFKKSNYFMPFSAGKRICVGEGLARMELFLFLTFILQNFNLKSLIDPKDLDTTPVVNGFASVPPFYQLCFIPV

COC(=O)Nc1nc2cc(C(=O)c3ccc(F)cc3)ccc2[nH]1 [Flubendazole, methyl N-[6-(4-fluorobenzoyl)-1H-benzimidazol-2-yl]carbamate]
t½ (CYP2C19): 815 min | t½ (CYP2C19; listed as flubendazole): ≥ 147 min | Compound Remaining (% of 0 min) (CYP2C19; CYP2C19, 0 min): 100% | Compound Remaining (% of 0 min) (CYP2C19; CYP2C19, 5 min): 99.5% | Compound Remaining (% of 0 min) (CYP2C19; CYP2C19, 15 min): 97.7% | Compound Remaining (% of 0 min) (CYP2C19; CYP2C19, 30 min): 98.8% | Compound Remaining (% of 0 min) (CYP2C19; CYP2C19, 45 min): 95.5% | t½ (CYP2C9): 5720 min | t½ (CYP2C9; listed as flubendazole): ≥ 147 min | Compound Remaining (% of 0 min) (CYP2C9; CYP2C9, 0 min): 100% | Compound Remaining (% of 0 min) (CYP2C9; CYP2C9, 5 min): 97.4% | Compound Remaining (% of 0 min) (CYP2C9; CYP2C9, 15 min): 101% | Compound Remaining (% of 0 min) (CYP2C9; CYP2C9, 30 min): 97.9% | Compound Remaining (% of 0 min) (CYP2C9; CYP2C9, 45 min): 99.0% | increase in half-life (human liver microsomes): > 14 times | microsomal CLint at 1 µM ([1]; pH 7.4, CLint, 1 µM substrate, no inhibitor): 50.3 µL/min/mg | microsomal CLint at 1 µM ([1]; pH 7.4, intrinsic clearance (CLint), pre-screen assay, absence of inhibitor): 43.7 µL/min/mg | half-life at 1 µM ([1]; pH 7.4, t½, 1 µM substrate, no inhibitor): 27.6 min | microsomal CLint at 1 µM (CYP1A2 [2]; 1 µM substrate, plus 3 µM furafylline): 14.6 µL/min/mg | microsomal CLint at 1 µM (CYP1A2 [2]; 1 µM substrate, plus 10 µM furafylline): 3.52 µL/min/mg | microsomal CLint at 1 µM (CYP1A2 [2]; 1 µM substrate, plus 30 µM furafylline): 5.39 µL/min/mg | half-life at 1 µM (CYP1A2 [2]; pH 7.4, half-life, 1 µM flubendazole, 10 µM furafylline): 396 min | half-life at 1 µM (CYP1A2 [2]; pH 7.4, t½, 1 µM substrate, plus 3 µM furafylline): 95.1 min | half-life at 1 µM (CYP1A2 [2]; pH 7.4, t½, 1 µM substrate, plus 10 µM furafylline): 394 min | half-life at 1 µM (CYP1A2 [2]; pH 7.4, t½, 1 µM substrate, plus 30 µM furafylline): 257 min | Compound Remaining (% of 0 min) (CYP2B6; CYP2B6, 0 min): 100% | Compound Remaining (% of 0 min) (CYP2B6; CYP2B6, 5 min): 96.5% | Compound Remaining (% of 0 min) (CYP2B6; CYP2B6, 15 min): 95.8% | Compound Remaining (% of 0 min) (CYP2B6; CYP2B6, 30 min): 97.8% | Compound Remaining (% of 0 min) (CYP2B6; CYP2B6, 45 min): 104% | half-life at 1 µM (CYP2B6; human, pH 7.4, 1 µM substrate, recombinant CYP2B6, NADPH, minus value = not metabolised, read-out: t½): ≥ 147 min | hepatocyte CLint at 1 µM ([3]; CLint, assay 2, no inhibitor): 8.62 ± 2.23 µL/min/1e6 cells | hepatocyte CLint at 1 µM ([3]; CLint, assay 3, no inhibitor): 16.7 ± 2.06 µL/min/1e6 cells | hepatocyte CLint at 1 µM ([3]; intrinsic clearance, assay 1 (pre-screening assay), no inhibitor): 15.2 ± 1.09 µL/min/1e6 cells | half-life at 1 µM ([3]; assay 2, no inhibitor): 161 min | half-life at 1 µM ([3]; assay 3, no inhibitor): 82.8 min | hepatocyte CLint at 1 µM (CYP1A2 [4]; assay 2, fluvoxamine 10 µM): 3.95 ± 0.941 µL/min/1e6 cells | hepatocyte CLint at 1 µM (CYP1A2 [4]; assay 2, furafylline 1 µM): 2.05 ± 2.04 µL/min/1e6 cells | hepatocyte CLint at 1 µM (CYP1A2 [4]; assay 2, furafylline 3 µM): 1.7 ± 0.885 µL/min/1e6 cells | hepatocyte CLint at 1 µM (CYP1A2 [4]; assay 2, thiabendazole 10 µM): 2.96 ± 1.17 µL/min/1e6 cells | hepatocyte CLint at 1 µM (CYP1A2 [4]; assay 3, cimetidine 10 µM): 5.43 ± 1.9 µL/min/1e6 cells | hepatocyte CLint at 1 µM (CYP1A2 [4]; assay 3, cimetidine 100 µM): 10.9 ± 1.27 µL/min/1e6 cells | hepatocyte CLint at 1 µM (CYP1A2 [4]; assay 3, cimetidine 300 µM): 9.19 ± 1.7 µL/min/1e6 cells | hepatocyte CLint at 1 µM (CYP1A2 [4]; assay 3, mexiletine 10 µM): 0.861 ± 0.522 µL/min/1e6 cells | hepatocyte CLint at 1 µM (CYP1A2 [4]; assay 3, mexiletine 300 µM): 5.85 ± 1.25 µL/min/1e6 cells | half-life at 1 µM (CYP1A2 [4]; assay 2, fluvoxamine 10 µM): 351 min | half-life at 1 µM (CYP1A2 [4]; assay 2, furafylline 1 µM): 677 min | half-life at 1 µM (CYP1A2 [4]; assay 2, furafylline 3 µM): 816 min | half-life at 1 µM (CYP1A2 [4]; assay 2, thiabendazole 10 µM): 468 min | half-life at 1 µM (CYP1A2 [4]; assay 3, cimetidine 10 µM): 255 min | half-life at 1 µM (CYP1A2 [4]; assay 3, cimetidine 100 µM): 128 min | half-life at 1 µM (CYP1A2 [4]; assay 3, cimetidine 300 µM): 151 min | half-life at 1 µM (CYP1A2 [4]; assay 3, mexiletine 10 µM): 1610 min | half-life at 1 µM (CYP1A2 [4]; assay 3, mexiletine 300 µM): 237 min

From patent US20230301968A1 (ZEPHAPHARM LTD, priority 2020, published 2023)
